Laboratory results: PubChem BioAssay AID248 (DTP/NCI, 2004)
Toxic doses and inconclusive results are not listed.

Tested on: L1210 leukemia ip in BDF1 mice, survival T/C
Test: NCI In Vivo Anticancer Drug Screen. Data for tumor model L1210 Leukemia (intraperitoneal) in B6D2F1 (BDF1) mice
Settings: endpoint: mean survival time, higher = longer survival
Method in brief: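 Antitumor effect is assessed in tumor-bearing animals. Survival in the compound arm is compared with a vehicle-dosed control arm and expressed as their quotient.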

[1] = dose: 100.0 mg/kg/injection, schedule: Q04DX003 (ip), vehicle: saline with Tween-80
[2] = dose: 200.0 mg/kg/injection, schedule: Q04DX003 (ip), vehicle: saline with Tween-80
[3] = dose: 400.0 mg/kg/injection, schedule: Q04DX003 (ip), vehicle: saline with Tween-80
[4] = dose: 100.0 mg/kg/injection, schedule: Q01DX009 (ip), vehicle: Klucel (hydroxypropylcellulose) (HPC)
[5] = dose: 100.0 mg/kg/injection, schedule: Q04DX003 (ip), vehicle: Klucel (hydroxypropylcellulose) (HPC)
[6] = dose: 200.0 mg/kg/injection, schedule: Q01DX009 (ip), vehicle: Klucel (hydroxypropylcellulose) (HPC)
[7] = dose: 200.0 mg/kg/injection, schedule: Q04DX003 (ip), vehicle: Klucel (hydroxypropylcellulose) (HPC)
[8] = dose: 400.0 mg/kg/injection, schedule: Q01DX009 (ip), vehicle: Klucel (hydroxypropylcellulose) (HPC)
[9] = dose: 400.0 mg/kg/injection, schedule: Q04DX003 (ip), vehicle: Klucel (hydroxypropylcellulose) (HPC)
[10] = dose: 12.5 mg/kg/injection, schedule: Q01DX009 (ip), vehicle: saline with Tween-80
[11] = dose: 25.0 mg/kg/injection, schedule: Q01DX009 (ip), vehicle: saline with Tween-80
[12] = dose: 100.0 mg/kg/injection, schedule: Q01DX001 (ip), vehicle: carboxymethylcellulose (CMC)
[13] = dose: 200.0 mg/kg/injection, schedule: Q01DX001 (ip), vehicle: carboxymethylcellulose (CMC)
[14] = dose: 400.0 mg/kg/injection, schedule: Q01DX001 (ip), vehicle: carboxymethylcellulose (CMC)

CC(=O)C(CCC#N)C(C)=O.CC(=O)C(CCC#N)C(C)=O.[Cu]
T/C (dose: 6.25 mg/kg/injection, schedule: Q01DX009 (ip), vehicle: Klucel (hydroxypropylcellulose) (HPC)): 95 % of control
T/C (dose: 12.5 mg/kg/injection, schedule: Q01DX009 (ip), vehicle: Klucel (hydroxypropylcellulose) (HPC)): 98 % of control
T/C (dose: 12.5 mg/kg/injection, schedule: Q04DX003 (ip), vehicle: Klucel (hydroxypropylcellulose) (HPC)): 90 % of control
T/C (dose: 25.0 mg/kg/injection, schedule: Q01DX009 (ip), vehicle: Klucel (hydroxypropylcellulose) (HPC)): 87 % of control
T/C (dose: 25.0 mg/kg/injection, schedule: Q04DX003 (ip), vehicle: Klucel (hydroxypropylcellulose) (HPC)): 91 % of control

O=C(/C=C\c1ccc(C(=O)Nc2ccc(C3=NCCCN3)cc2)cc1)Nc1ccc(C2=NCCCN2)cc1
T/C (dose: 0.25 mg/kg/injection, schedule: Q01DX Z (ip), vehicle: water): 121 % of control
T/C (dose: 0.75 mg/kg/injection, schedule: Q01DX Z (ip), vehicle: water): 183 % of control
T/C (dose: 1.0 mg/kg/injection, schedule: Q01DX Z (ip), vehicle: water): 220 % of control
T/C (dose: 1.25 mg/kg/injection, schedule: Q01DX Z (ip), vehicle: water): 203 % of control
T/C (dose: 10.5 mg/kg/injection, schedule: Q01DX Z (ip), vehicle: water): 123 % of control
T/C (dose: 50.0 mg/kg/injection, schedule: Q01DX Z (oral), vehicle: water): 101 % of control
T/C (dose: 100.0 mg/kg/injection, schedule: Q01DX Z (oral), vehicle: water): 93 % of control
T/C (dose: 200.0 mg/kg/injection, schedule: Q01DX Z (oral), vehicle: water): 114 % of control

COc1ccccc1NC1=C(NC(C)=O)C(=O)c2ccccc2C1=O
T/C [1]: 95 % of control
T/C [2]: 95 % of control
T/C [3]: 97 % of control

Cc1ccc(NC(=O)Nc2ccccc2C(N)=O)cc1
T/C (dose: 100.0 mg/kg/injection, schedule: Q04DX003 (ip), vehicle: saline sonified): 92 % of control
T/C (dose: 200.0 mg/kg/injection, schedule: Q04DX003 (ip), vehicle: saline sonified): 92 % of control
T/C (dose: 400.0 mg/kg/injection, schedule: Q04DX003 (ip), vehicle: saline sonified): 89 % of control

CCC(=O)Nc1ccccc1
T/C [4]: 101 % of control
T/C [5]: 100 % of control
T/C [6]: 95 % of control
T/C [7]: 104 % of control
T/C [8]: 108 % of control
T/C [9]: 114 % of control

CN(C)S(=O)(=O)c1ccc(NC(=O)CI)cc1
T/C (dose: 12.0 mg/kg/injection, schedule: Q01DX001 (ip), vehicle: other): 95 % of control
T/C [10]: 95 % of control
T/C (dose: 12.5 mg/kg/injection, schedule: Q04DX003 (ip), vehicle: other): 95 % of control
T/C (dose: 25.0 mg/kg/injection, schedule: Q01DX001 (ip), vehicle: other): 105 % of control
T/C [11]: 106 % of control
T/C (dose: 25.0 mg/kg/injection, schedule: Q04DX003 (ip), vehicle: other): 101 % of control
T/C (dose: 50.0 mg/kg/injection, schedule: Q01DX001 (ip), vehicle: other): 100 % of control
T/C (dose: 50.0 mg/kg/injection, schedule: Q04DX003 (ip), vehicle: other): 96 % of control

Cn1ccoc1=NC1CCCCC1
T/C [1]: 96 % of control
T/C [2]: 95 % of control

O=C(CNC(=O)c1cccc(C(=O)NCC(=O)Nc2ccc(C3=NCCN3)cc2)c1)Nc1ccc(C2=NCCN2)cc1
T/C (dose: 4.0 mg/kg/injection, schedule: Q01DX Z (ip), vehicle: water): 107 % of control
T/C (dose: 6.0 mg/kg/injection, schedule: Q01DX Z (ip), vehicle: water): 104 % of control
T/C (dose: 9.0 mg/kg/injection, schedule: Q01DX Z (ip), vehicle: water): 113 % of control
T/C (dose: 12.0 mg/kg/injection, schedule: Q01DX Z (ip), vehicle: water): 153 % of control

O=C(OCC(O)C(O)C(O)C(O)COC(=O)c1ccccc1)c1ccccc1 (stereo unspecified)
T/C [12]: 98 % of control
T/C [13]: 95 % of control
T/C [14]: 95 % of control

CC(=O)OC(OC(C)=O)c1cccc2ccccc12
T/C (dose: 222.0 mg/kg/injection, schedule: Q01DX Z (ip), vehicle: saline): 91 % of control
T/C (dose: 333.0 mg/kg/injection, schedule: Q01DX Z (ip), vehicle: saline): 98 % of control
T/C (dose: 500.0 mg/kg/injection, schedule: Q01DX Z (ip), vehicle: saline): 109 % of control

N/C(=N\[N+](=O)[O-])N(CCCCl)N=O
T/C (dose: 3.12 mg/kg/injection, schedule: Q01DX Z (ip), vehicle: saline): 105 % of control
T/C (dose: 6.25 mg/kg/injection, schedule: Q01DX Z (ip), vehicle: saline): 106 % of control
T/C (dose: 12.5 mg/kg/injection, schedule: Q01DX Z (ip), vehicle: saline): 106 % of control
T/C (dose: 18.75 mg/kg/injection, schedule: Q01DX009 (ip), vehicle: saline with Tween-80): 107 % of control
T/C (dose: 25.0 mg/kg/injection, schedule: Q01DX Z (ip), vehicle: saline): 120 % of control
T/C (dose: 37.5 mg/kg/injection, schedule: Q01DX009 (ip), vehicle: saline with Tween-80): 103 % of control
T/C (dose: 40.0 mg/kg/injection, schedule: Q01DX Z (ip), vehicle: carboxymethylcellulose (CMC)): 119 % of control
T/C (dose: 50.0 mg/kg/injection, schedule: Q01DX001 (ip), vehicle: saline): 108 % of control
T/C (dose: 60.0 mg/kg/injection, schedule: Q01DX Z (ip), vehicle: carboxymethylcellulose (CMC)): 116 % of control
T/C (dose: 75.0 mg/kg/injection, schedule: Q01DX009 (ip), vehicle: saline with Tween-80): 123 % of control
T/C (dose: 90.0 mg/kg/injection, schedule: Q01DX Z (ip), vehicle: carboxymethylcellulose (CMC)): 111 % of control
T/C (dose: 100.0 mg/kg/injection, schedule: Q01DX001 (ip), vehicle: saline): 97 % of control
T/C (dose: 150.0 mg/kg/injection, schedule: Q01DX009 (ip), vehicle: saline with Tween-80): 104 % of control
T/C (dose: 200.0 mg/kg/injection, schedule: Q01DX001 (ip), vehicle: saline): 106 % of control

OC1(C2(O)CCC2)CCC1
T/C (dose: 50.0 mg/kg/injection, schedule: Q01DX001 (ip), vehicle: carboxymethylcellulose (CMC)): 98 % of control
T/C [12]: 95 % of control
T/C [13]: 95 % of control
T/C [14]: 101 % of control

c1ccc(C(c2ccccc2)C2CCCCC2)cc1
T/C [5]: 87 % of control
T/C [7]: 90 % of control

CCOC(=O)CCCCN(C(=O)OCc1ccccc1)N(C)C(=O)OCc1ccccc1
T/C (dose: 25.0 mg/kg/injection, schedule: Q04DX003 (ip), vehicle: saline with Tween-80): 115 % of control
T/C (dose: 50.0 mg/kg/injection, schedule: Q04DX003 (ip), vehicle: saline with Tween-80): 95 % of control
T/C [1]: 101 % of control
T/C [2]: 103 % of control
T/C [3]: 97 % of control

CCOC(=O)CNCc1cccnc1
T/C (dose: 100.0 mg/kg/injection, schedule: Q01DX009 (ip), vehicle: saline): 97 % of control
T/C (dose: 100.0 mg/kg/injection, schedule: Q04DX003 (ip), vehicle: saline): 95 % of control
T/C (dose: 200.0 mg/kg/injection, schedule: Q01DX009 (ip), vehicle: saline): 94 % of control
T/C (dose: 200.0 mg/kg/injection, schedule: Q04DX003 (ip), vehicle: saline): 87 % of control
T/C (dose: 400.0 mg/kg/injection, schedule: Q01DX009 (ip), vehicle: saline): 95 % of control
T/C (dose: 400.0 mg/kg/injection, schedule: Q04DX003 (ip), vehicle: saline): 102 % of control

CCSC(=O)CC
T/C [1]: 104 % of control
T/C [2]: 100 % of control
T/C [3]: 95 % of control

COc1ccc(N=C=S)cc1N=C=S
T/C (dose: 6.25 mg/kg/injection, schedule: Q01DX009 (ip), vehicle: saline with Tween-80): 101 % of control
T/C [10]: 103 % of control
T/C [11]: 104 % of control

CC(C)(CCl)c1ccccc1
T/C (dose: 100.0 mg/kg/injection, schedule: Q04DX002 (ip), vehicle: saline with Tween-80): 107 % of control
T/C (dose: 200.0 mg/kg/injection, schedule: Q04DX002 (ip), vehicle: saline with Tween-80): 88 % of control
T/C (dose: 400.0 mg/kg/injection, schedule: Q04DX002 (ip), vehicle: saline with Tween-80): 88 % of control

c1ccc(COc2ccc(Nc3ccccc3)cc2)cc1
T/C [4]: 98 % of control
T/C [5]: 106 % of control
T/C [6]: 100 % of control
T/C [7]: 103 % of control
T/C [8]: 102 % of control
T/C [9]: 94 % of control
